Test results published in patent publication US9403823B2, “Protein kinase inhibitors” (ORIBASE PHARMA, priority 2012, dated 2016).
Like-named read-outs stand apart in the source and are kept apart here.

Experiments:
HRMEC cells = test: In vitro cell proliferation assay (MTT), HRMEC; assay type: cell-based; settings: 72 h, read-out: EC50, anti-proliferative activity
Protocol: (§1) 2) In Vitro Cell Proliferation Assays (Table 22 to Table 35)
(§2) Cancer cell lines (5×10^3 cells per well) or HUVEC (1×10^4 cells per well) or HRMEC (1×10^4 cells per well) were distributed in 96-well plates and incubating in duplicate with escalating concentrations (10 nM to 3 μM) of compounds for 72 hr. Cell proliferation was measured using MTT (3[4,5-dimethylthiazol-2-yl]-2,5-diphenyltetrazolium bromide).

SRC = target: T1, SRC (Homo sapiens, UniProt P12931); test: In vitro kinase assay (Z'-LYTE), SRC; assay type: biochemical; settings: read-out: % of inhibition of the kinase compared to the control
T1 construct: purchased Invitrogen
Summary of the method: (§3)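 FRET-based Z'-LYTE coupled-enzyme assay: kinase phosphorylates a dual-fluorophore peptide, unphosphorylated peptide is protease-cleaved, and donor/acceptor emission ratio after 400 nm excitation quantifies progress. Buffer 50 mM HEPES pH 7.5, 10 mM MgCl2, 1 mM EGTA, 0.01% BRIJ-35; 1% DMSO final. Single compound concentration: 100 nM, or 10 μM for ABL and ABL T315I.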

A549 cell line = test: In vitro cell proliferation assay (MTT), A549; assay type: cell-based; settings: Homo sapiens, read-out: EC50, anti-proliferative activity
Summary of the method: (§4)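 Cancer cell lines were seeded at 5×10^3 cells per well and HRMEC at 1×10^4 cells per well, then incubated in duplicate with escalating compound concentrations (10 nM to 3 μM) for 72 hr. Proliferation was read by MTT.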

HuH6 Clone 5 cell line = test: In vitro cell proliferation assay (MTT), HuH6 Clone 5; assay type: cell-based; settings: HUH-6-clone5, 72 h; read-out: EC50, anti-proliferative activity
Protocol: as §1, §2

PDGFRA (PDGFR alpha) = target: T2, PDGFRA (PDGFR alpha) (Homo sapiens, UniProt P16234); test: In vitro kinase assay (Z'-LYTE), PDGFRA; assay type: biochemical; settings: read-out: % of inhibition of the kinase compared to the control
T2 construct: purchased Invitrogen
Summary of the method: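 Inhibition read as emission ratio (donor/acceptor, 400 nm excitation) of a FRET-labelled peptide, phosphorylation protecting it from proteolytic cleavage. Compounds tested once at 100 nM for VEGFR1 and PDGFRA, at 10 μM for ABL and ABL T315I, 1% DMSO final. ATP at previously determined apparent Km.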

HT29 cell line = test: In vitro cell proliferation assay (MTT), HT29; assay type: cell-based; settings: Homo sapiens, read-out: EC50, anti-proliferative activity
Protocol: as §1, §2

HepG2 cell line = test: In vitro cell proliferation assay (MTT), HepG2; assay type: cell-based; settings: Homo sapiens, read-out: EC50, anti-proliferative activity
Summary of the method: as §4

HUVEC = test: In vitro cell proliferation assay (MTT), HUVEC; assay type: cell-based; settings: Homo sapiens, 72 h, read-out: EC50, anti-proliferative activity
Summary of the method: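 HUVEC cells were plated at 1×10^4 cells per well in 96-well plates and exposed in duplicate to increasing compound concentrations from 10 nM to 3 μM for 72 hr. Proliferation was then quantified with MTT (3[4,5-dimethylthiazol-2-yl]-2,5-diphenyltetrazolium bromide) to determine anti-proliferative activity.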

BxPC-3 cell line = test: In vitro cell proliferation assay (MTT), BxPC-3; assay type: cell-based; settings: Homo sapiens, read-out: EC50, anti-proliferative activity
Protocol: as §1, §2

H1975 cell line = test: In vitro cell proliferation assay (MTT), H1975; assay type: cell-based; settings: Homo sapiens, read-out: EC50, anti-proliferative activity
Protocol: as §1, §2

MDA-MB-231 cell line = test: In vitro cell proliferation assay (MTT), MDA-MB-231; assay type: cell-based; settings: Homo sapiens, MDA-MB-231, 72 h; read-out: EC50, anti-proliferative activity
Summary of the method: as §4

FGFR2 = target: T3, FGFR2 (Homo sapiens, UniProt P21802); test: In vitro kinase assay (Z'-LYTE), FGFR2; assay type: biochemical; settings: read-out: % of inhibition of the kinase compared to the control
T3 construct: purchased Invitrogen
Summary of the method: as §3

BRAF = target: T4, BRAF (Homo sapiens, UniProt P15056); test: In vitro kinase assay (Z'-LYTE), BRAF; assay type: biochemical; settings: read-out: % of inhibition of the kinase compared to the control
T4 construct: purchased Invitrogen
Summary of the method: as §3

HuH7 cell line = test: In vitro cell proliferation assay (MTT), HuH7; assay type: cell-based; settings: Homo sapiens, Huh-7, 72 h; read-out: EC50, anti-proliferative activity
Protocol: as §1, §2

EGFR (ErbB1) T790M L858R = target: T5, EGFR (ErbB1) T790M L858R (Homo sapiens, UniProt P00533, L858R/T790M); test: In vitro kinase assay (Z'-LYTE), EGFR (ErbB1) T790M L858R; assay type: biochemical; settings: read-out: % of inhibition of the kinase compared to the control
T5 construct: purchased Invitrogen
Protocol: (§5) 1) In Vitro Kinase Assays (Table 10 to Table 21)
(§6) The inhibitory activity of the compounds on several kinases including BRAF, EGFR (ErbB1), EGFR (ErbB1) T790M L858R, FGFR2, KDR (VEGFR2), PDGFRA (PDGFR alpha), SRC and other was evaluated by Invitrogen using the Z′-LYTE® technology. Briefly, the Z′-LYTE® biochemical assay employs a fluorescence-based, coupled-enzyme format and is based on the differential sensitivity of phosphorylated and non-phosphorylated peptides to proteolytic cleavage. The peptide substrate is labeled with two fluorophores—one at each end—that make up a FRET pair. A ratiometric method, which calculates the ratio (the Emission Ratio) of donor emission to acceptor emission after excitation of the donor fluorophore at 400 nm, is used to quantitate reaction progress.
(§7) The compounds are screened in 1% DMSO (final) in the well. For 10 point titrations, 3-fold serial dilutions are conducted from the starting concentration. All Peptide/Kinase Mixtures are diluted to a 2× working concentration in the appropriate Kinase Buffer. All ATP Solutions are diluted to a 4× working concentration in Kinase Buffer (50 mM HEPES pH 7.5, 0.01% BRIJ-35, 10 mM MgCl2, 1 mM EGTA). ATP Km apparent is previously determined using a Z′-LYTE® assay.
(§8) Each compound was incubated at a concentration of 100 nM (excepted to test the activity against ABL and ABL T315I for which the compounds were incubated at a concentration of 10 μM) and the tables 10 to 21 summarize the results obtained showing the inhibitory power of a compound.

EGFR (ErbB1) = target: T6, EGFR (ErbB1) (Homo sapiens, UniProt P00533); test: In vitro kinase assay (Z'-LYTE), EGFR (ErbB1); assay type: biochemical; settings: read-out: % of inhibition of the kinase compared to the control
T6 construct: purchased Invitrogen
Summary of the method: as §3

HuCCT1 cell line = test: In vitro cell proliferation assay (MTT), HuCCT1; assay type: cell-based; settings: Homo sapiens, HuCCT-1, 72 h; read-out: EC50, anti-proliferative activity
Protocol: as §1, §2

HeLa cell line = test: In vitro cell proliferation assay (MTT), HeLa; assay type: cell-based; settings: Homo sapiens, 72 h, read-out: EC50, anti-proliferative activity
Protocol: as §1, §2

KDR (VEGFR2) = target: T7, KDR (VEGFR2) (Homo sapiens, UniProt P35968); test: In vitro kinase assay (Z'-LYTE), KDR (VEGFR2); assay type: biochemical; settings: read-out: % of inhibition of the kinase compared to the control
T7 construct: purchased Invitrogen
Summary of the method: as §3

ABL T315I = target: T8, ABL T315I (Homo sapiens, UniProt P00519, T315I); test: In vitro kinase assay (Z'-LYTE), ABL T315I; assay type: biochemical; settings: read-out: % of inhibition of the kinase compared to the control
T8 construct: purchased Invitrogen
Protocol: as §5, §6, §7, §8

ABL = target: T9, ABL (Homo sapiens, UniProt P00519); test: In vitro kinase assay (Z'-LYTE), ABL; assay type: biochemical; settings: read-out: % of inhibition of the kinase compared to the control
T9 construct: purchased Invitrogen
Protocol: as §5, §6, §7, §8

T2 sequence (P16234 24-1089): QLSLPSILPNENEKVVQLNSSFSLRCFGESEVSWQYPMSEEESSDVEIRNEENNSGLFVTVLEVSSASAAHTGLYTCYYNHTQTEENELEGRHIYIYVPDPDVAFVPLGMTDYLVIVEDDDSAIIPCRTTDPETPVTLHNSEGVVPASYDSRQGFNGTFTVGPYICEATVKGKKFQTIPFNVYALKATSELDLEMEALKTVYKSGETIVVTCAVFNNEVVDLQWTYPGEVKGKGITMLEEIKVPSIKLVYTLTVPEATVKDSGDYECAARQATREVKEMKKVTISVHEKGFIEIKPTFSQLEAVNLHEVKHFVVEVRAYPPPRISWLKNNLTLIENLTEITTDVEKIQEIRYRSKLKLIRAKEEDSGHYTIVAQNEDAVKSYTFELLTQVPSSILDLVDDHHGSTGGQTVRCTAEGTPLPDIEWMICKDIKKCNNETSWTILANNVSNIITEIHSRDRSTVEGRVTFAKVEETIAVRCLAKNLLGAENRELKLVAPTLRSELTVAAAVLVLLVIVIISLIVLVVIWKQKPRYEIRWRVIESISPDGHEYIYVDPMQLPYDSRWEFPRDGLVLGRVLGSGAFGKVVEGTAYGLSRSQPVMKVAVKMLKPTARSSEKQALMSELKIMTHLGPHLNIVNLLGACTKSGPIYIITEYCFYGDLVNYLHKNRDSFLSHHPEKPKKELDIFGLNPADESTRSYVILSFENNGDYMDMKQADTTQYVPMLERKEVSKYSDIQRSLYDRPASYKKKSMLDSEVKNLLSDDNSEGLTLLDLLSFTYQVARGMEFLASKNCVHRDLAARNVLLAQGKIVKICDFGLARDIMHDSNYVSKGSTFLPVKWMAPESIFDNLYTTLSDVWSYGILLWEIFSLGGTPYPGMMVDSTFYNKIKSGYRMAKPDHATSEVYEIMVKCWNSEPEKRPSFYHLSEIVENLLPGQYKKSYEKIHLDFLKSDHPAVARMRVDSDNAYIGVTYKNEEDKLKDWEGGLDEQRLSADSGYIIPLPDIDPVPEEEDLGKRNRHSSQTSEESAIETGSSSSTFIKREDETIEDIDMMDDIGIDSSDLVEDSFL
T4 sequence (P15056 whole entry): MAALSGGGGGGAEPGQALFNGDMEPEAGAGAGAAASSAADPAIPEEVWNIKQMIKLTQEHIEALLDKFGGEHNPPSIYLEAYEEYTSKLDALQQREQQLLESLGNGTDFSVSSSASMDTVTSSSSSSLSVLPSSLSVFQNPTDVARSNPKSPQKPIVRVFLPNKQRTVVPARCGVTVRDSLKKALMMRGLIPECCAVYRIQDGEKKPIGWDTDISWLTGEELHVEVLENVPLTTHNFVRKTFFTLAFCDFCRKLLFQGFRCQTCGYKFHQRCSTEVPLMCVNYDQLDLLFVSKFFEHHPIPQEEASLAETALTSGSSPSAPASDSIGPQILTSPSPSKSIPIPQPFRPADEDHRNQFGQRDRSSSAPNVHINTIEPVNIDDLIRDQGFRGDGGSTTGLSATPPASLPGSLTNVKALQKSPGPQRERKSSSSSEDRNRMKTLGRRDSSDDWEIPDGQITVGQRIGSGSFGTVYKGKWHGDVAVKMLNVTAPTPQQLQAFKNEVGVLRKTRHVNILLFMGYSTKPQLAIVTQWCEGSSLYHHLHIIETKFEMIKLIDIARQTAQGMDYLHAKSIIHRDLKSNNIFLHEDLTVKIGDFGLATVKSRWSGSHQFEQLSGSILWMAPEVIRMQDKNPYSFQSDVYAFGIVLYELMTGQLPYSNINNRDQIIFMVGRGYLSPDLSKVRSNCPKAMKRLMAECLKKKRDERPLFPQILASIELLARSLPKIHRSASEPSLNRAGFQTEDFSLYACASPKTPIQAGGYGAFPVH
T6 sequence (P00533 25-1210): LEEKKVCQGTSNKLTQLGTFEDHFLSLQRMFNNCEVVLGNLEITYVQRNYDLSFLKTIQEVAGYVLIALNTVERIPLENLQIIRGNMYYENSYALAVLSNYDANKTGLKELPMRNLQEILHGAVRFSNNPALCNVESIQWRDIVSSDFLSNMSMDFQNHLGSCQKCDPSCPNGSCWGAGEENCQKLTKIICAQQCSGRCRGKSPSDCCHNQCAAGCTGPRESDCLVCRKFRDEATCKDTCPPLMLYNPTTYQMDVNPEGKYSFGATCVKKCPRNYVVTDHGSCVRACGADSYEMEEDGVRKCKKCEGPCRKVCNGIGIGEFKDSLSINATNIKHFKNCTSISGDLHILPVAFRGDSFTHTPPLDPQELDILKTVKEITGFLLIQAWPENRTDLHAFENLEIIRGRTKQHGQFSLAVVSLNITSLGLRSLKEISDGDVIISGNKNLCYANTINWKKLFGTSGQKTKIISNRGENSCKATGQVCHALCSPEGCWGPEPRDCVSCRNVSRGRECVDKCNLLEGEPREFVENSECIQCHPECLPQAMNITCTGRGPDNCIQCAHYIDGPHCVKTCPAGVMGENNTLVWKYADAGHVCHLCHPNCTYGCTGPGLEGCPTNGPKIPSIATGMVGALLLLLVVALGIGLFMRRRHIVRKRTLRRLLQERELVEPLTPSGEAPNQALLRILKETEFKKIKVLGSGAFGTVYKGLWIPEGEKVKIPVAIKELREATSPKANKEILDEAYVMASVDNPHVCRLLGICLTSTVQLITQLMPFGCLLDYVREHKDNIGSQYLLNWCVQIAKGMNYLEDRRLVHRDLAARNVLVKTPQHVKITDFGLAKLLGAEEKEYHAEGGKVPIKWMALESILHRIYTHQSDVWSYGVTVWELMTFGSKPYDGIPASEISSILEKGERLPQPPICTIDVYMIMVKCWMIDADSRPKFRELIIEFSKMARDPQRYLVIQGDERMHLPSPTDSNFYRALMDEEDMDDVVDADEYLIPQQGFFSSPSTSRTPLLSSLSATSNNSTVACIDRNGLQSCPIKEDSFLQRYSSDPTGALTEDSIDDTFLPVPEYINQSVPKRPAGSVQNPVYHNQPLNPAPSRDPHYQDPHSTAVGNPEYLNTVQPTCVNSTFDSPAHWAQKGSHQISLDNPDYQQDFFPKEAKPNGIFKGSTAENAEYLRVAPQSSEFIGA
T5 sequence (P00533 25-1210 T790M/L858R): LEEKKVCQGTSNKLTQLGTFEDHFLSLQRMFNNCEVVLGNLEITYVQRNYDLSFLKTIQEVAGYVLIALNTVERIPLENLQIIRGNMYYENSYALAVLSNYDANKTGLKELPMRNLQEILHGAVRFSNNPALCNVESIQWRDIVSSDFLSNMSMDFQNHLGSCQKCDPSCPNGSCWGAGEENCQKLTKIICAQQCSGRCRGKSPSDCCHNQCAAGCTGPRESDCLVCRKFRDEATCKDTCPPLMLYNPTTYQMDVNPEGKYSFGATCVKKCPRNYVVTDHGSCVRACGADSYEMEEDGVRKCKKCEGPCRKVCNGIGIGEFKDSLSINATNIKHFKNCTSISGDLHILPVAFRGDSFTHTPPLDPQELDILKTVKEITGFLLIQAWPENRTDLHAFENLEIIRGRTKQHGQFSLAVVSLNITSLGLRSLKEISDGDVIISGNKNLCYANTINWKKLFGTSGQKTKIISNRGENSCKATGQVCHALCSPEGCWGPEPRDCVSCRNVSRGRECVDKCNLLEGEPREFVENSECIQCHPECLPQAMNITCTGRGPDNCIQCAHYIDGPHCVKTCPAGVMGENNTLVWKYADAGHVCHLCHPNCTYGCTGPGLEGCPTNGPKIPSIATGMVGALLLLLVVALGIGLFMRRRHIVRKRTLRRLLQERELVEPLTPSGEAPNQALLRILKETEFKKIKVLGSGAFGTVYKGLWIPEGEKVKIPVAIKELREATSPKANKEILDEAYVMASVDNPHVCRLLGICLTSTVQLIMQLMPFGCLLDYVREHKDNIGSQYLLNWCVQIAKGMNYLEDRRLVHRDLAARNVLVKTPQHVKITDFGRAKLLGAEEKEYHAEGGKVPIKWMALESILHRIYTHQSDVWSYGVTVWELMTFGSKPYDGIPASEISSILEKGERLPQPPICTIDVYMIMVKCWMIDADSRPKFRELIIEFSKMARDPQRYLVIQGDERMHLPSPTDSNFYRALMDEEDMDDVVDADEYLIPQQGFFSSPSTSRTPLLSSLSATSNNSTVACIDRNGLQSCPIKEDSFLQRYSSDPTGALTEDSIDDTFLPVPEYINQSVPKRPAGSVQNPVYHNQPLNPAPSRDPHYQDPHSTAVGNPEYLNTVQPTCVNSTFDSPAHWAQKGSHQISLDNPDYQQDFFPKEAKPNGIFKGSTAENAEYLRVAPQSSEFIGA
T3 sequence (P21802 22-821): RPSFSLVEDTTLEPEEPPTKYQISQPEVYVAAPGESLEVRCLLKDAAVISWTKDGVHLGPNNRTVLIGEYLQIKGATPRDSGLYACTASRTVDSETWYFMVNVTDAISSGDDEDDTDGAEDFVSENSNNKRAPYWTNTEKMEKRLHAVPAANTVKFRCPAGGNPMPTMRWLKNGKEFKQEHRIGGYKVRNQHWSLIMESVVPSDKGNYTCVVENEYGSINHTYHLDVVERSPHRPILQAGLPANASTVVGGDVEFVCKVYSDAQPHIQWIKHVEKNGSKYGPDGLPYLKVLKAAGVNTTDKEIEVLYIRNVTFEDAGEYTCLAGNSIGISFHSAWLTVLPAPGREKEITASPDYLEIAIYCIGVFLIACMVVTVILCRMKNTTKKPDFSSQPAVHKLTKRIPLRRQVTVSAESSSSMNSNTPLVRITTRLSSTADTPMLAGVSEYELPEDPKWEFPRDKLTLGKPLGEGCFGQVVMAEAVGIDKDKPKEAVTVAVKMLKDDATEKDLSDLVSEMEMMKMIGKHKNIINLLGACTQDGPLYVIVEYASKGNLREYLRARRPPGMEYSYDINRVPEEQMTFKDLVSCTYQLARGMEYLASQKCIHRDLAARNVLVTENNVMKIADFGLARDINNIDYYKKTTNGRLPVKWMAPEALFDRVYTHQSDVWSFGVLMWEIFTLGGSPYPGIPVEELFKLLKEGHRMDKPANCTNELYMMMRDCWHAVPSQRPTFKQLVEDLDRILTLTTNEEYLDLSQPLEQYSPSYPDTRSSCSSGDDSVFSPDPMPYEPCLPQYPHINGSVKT

For `CC(=O)c1cc2cc(NCc3cc(NC(=O)c4ccc(CN5CCC(N(C)C)C5)c(C(F)(F)F)c4)ccc3C)cnc2[nH]1` (stereo not drawn) [OR0718, N-{3-[(2-Acetyl-1H-pyrrolo[2,3-b]pyridin-5-ylamino)-methyl]-4-methyl-phenyl}-4-(3-dimethylamino-pyrrolidin-1-ylmethyl)-3-trifluoromethyl-benzamide], the EC50 (HRMEC cells) was 100 to 1000 nM, the inhibition at 0.1 µM (SRC) was at least 50% and the EC50 (A549 cell line; A549, 72 h) was 100 to 1000 nM. It also gave an EC50 (HuH6 Clone 5 cell line) of 100 to 1000 nM, an inhibition at 0.1 µM (PDGFRA (PDGFR alpha)) of at least 50% and an EC50 (HT29 cell line; HT-29, 72 h) of 100 to 1000 nM. It also gave an EC50 (HepG2 cell line; HepG2, 72 h) of 100 to 1000 nM, an EC50 (HUVEC) of at most 100 nM and an EC50 (BxPC-3 cell line; BXPC-3, 72 h) of at most 100 nM. It also gave an EC50 (H1975 cell line; NCI-H1975, 72 h) of 100 to 1000 nM, an EC50 (MDA-MB-231 cell line) of at most 100 nM and an inhibition at 0.1 µM (FGFR2) of at least 50%. The inhibition at 0.1 µM (BRAF) was at least 50%, the EC50 (HuH7 cell line) was 100 to 1000 nM and the inhibition at 0.1 µM (EGFR (ErbB1) T790M L858R) was at least 50%. It also gave an inhibition at 0.1 µM (EGFR (ErbB1)) of at least 50%, an EC50 (HuCCT1 cell line) of 100 to 1000 nM and an EC50 (HeLa cell line) of 100 to 1000 nM. It also gave an inhibition at 0.1 µM (KDR (VEGFR2)) of at least 50%.

Work on `Cc1ccc(NC(=O)c2ccc(CN3CCC(N(C)C)C3)c(C(F)(F)F)c2)cc1CNc1cnc2[nH]c(C(=O)O)cc2c1` (stereo not drawn) [OR0528, 5-{5-[4-(3-Dimethylamino-pyrrolidin-1-ylmethyl)-3-trifluoromethyl-benzoylamino]-2-methyl-benzylamino}-1H-pyrrolo[2,3-b]pyridine-2-carboxylic acid] yielded an inhibition at 0.1 µM (SRC) of at least 50%, an EC50 (A549 cell line; A549, 72 hr, MTT) of at least 1000 nM and an inhibition at 0.1 µM (PDGFRA (PDGFR alpha)) of at least 50%. For the same molecule, the EC50 (HT29 cell line; HT-29, HT29, 72 hr, MTT) was at least 1000 nM, the inhibition at 10 µM (ABL T315I) was at least 50% and the EC50 (HepG2 cell line; HepG2, 72 hr, MTT) was at least 1000 nM. For the same molecule, the EC50 (BxPC-3 cell line; BxPC-3, 72 hr, MTT) was at least 1000 nM, the EC50 (H1975 cell line; NCI-H1975, H1975, 72 hr, MTT) was at least 1000 nM and the inhibition at 0.1 µM (FGFR2) was at least 50%. It also gave an inhibition at 0.1 µM (BRAF) of under 50%, an inhibition at 10 µM (ABL) of at least 50% and an inhibition at 0.1 µM (EGFR (ErbB1) T790M L858R) of at least 50%. For the same molecule, the inhibition at 0.1 µM (EGFR (ErbB1)) was at least 50% and the inhibition at 0.1 µM (KDR (VEGFR2)) was at least 50%.
